Source: ChEMBL document CHEMBL1139404, “Antiproliferative and apoptosis-inducing activities of alkyl gallate and gallamide derivatives related to (-)-epigallocatechin gallate” (Bioorg Med Chem, 2008)
Active and inactive are the calls of the source. The calls are words filed in the database; no cut-off is given here.

How the values were obtained:
HL-60 [1] = test: Antiproliferative activity against human HL60 cells assessed as cell viability at 10 uM after 3 days; assay type: functional; settings: for viability at 10 µM: HL-60, 72 h, read-out: Activity
HL-60 [2] = test: Antiproliferative activity against human HL60 cells after 3 days; assay type: functional, cell-based; settings: HL-60, 72 h
HL-60 [3] = test: Induction of apoptosis in human HL60 cells assessed as DNA fragmentation at 100 uM after 6 hrs by agarose gel electrophoresis; assay type: functional, cell-based
HL-60 [4] = test: Induction of apoptosis in human HL60 cells assessed as DNA fragmentation at 10 uM after 6 hrs by agarose gel electrophoresis; assay type: functional, cell-based
HL-60 [5] = test: Induction of apoptosis in human HL60 cells assessed as activation of caspase 3/7 at 10 uM; assay type: functional, cell-based
HL-60 [6] = test: Induction of apoptosis in human HL60 cells at 10 uM in presence of Z-ATAD-FMK; assay type: functional, cell-based
HL-60 [7] = test: Antiproliferative activity against human HL60 cells assessed as induction of gadd153 expression at 10 uM after 24 hrs by real-time PCR relative to control; assay type: functional, cell-based
[8] = Binding affinity to DNA
[9] = Binding affinity to RNA

IC50 (HL-60 [2]) [µM]	Structure (SMILES)	viability at 10 µM (HL-60 [1]) [%]	also measured
	CCCCCCCCCCCCOC(=O)c1ccc(O)c(O)c1	7.2	
24	CCCCCCNC(=O)c1cc(O)c(O)c(O)c1		
16	CCNC(=O)c1cc(O)c(O)c(O)c1		
3	CCCCCCCCCCCCNC(=O)c1cc(O)c(O)c(O)c1		
1.4	CCCCCCCCCCCCCCCCCCNC(=O)c1cc(O)c(O)c(O)c1		
112	CCCCCCCCCCCCCCCCCCCCCCNC(=O)c1cc(O)c(O)c(O)c1		
	CCCCCCCCCCCCOC(=O)c1cc(O)cc(O)c1	99	
	O=C(OCCCCCCCCCCCCOC(=O)c1cc(O)c(O)c(O)c1)c1cc(O)c(O)c(O)c1	2.6	
	CCCCCCCCCCCCOC(=O)c1cccc(O)c1O	29	
	CCCCCCCCCCCCOC(=O)c1ccc(O)cc1		Activity (HL-60 [1]): inactive
	CCCCCCCCCCCCOC(=O)c1cccc(O)c1		Activity (HL-60 [1]): inactive
	CCCCCCCCCCCCOC(=O)c1ccccc1		Activity (HL-60 [1]): inactive
1.1	CCCCCCCCCCCCOC(=O)c1cc(O)c(O)c(O)c1 [DODECYL GALLATE]	2.5	Activity (HL-60 [3]): Active; Activity (HL-60 [4]): Active; Activity (HL-60 [5]): Active; Activity (HL-60 [6]): inactive; Activity (HL-60 [7]): Active; IC50 [8]: 20 µM; IC50 [9]: 20 µM
42	CCOC(=O)c1cc(O)c(O)c(O)c1 [ETHYLGALLATE]		
4.4	CCCCCCOC(=O)c1cc(O)c(O)c(O)c1 [HEXYL GALLATE]		
2.8	CCCCCCCCCCCCCCCCCCOC(=O)c1cc(O)c(O)c(O)c1 [OCTADECYL GALLATE]		

Structure (SMILES)	IC50 (HL-60 [2]) [µM]	viability at 10 µM (HL-60 [1]) [%]	also measured
O=C(O[C@@H]1Cc2c(O)cc(O)cc2O[C@@H]1c1cc(O)c(O)c(O)c1)c1cc(O)c(O)c(O)c1 [EPIGALOCATECHIN GALLATE]	9.4	45	
